Measured values reported in ChEMBL document CHEMBL4304828, “PROTAC-Mediated Degradation of Estrogen Receptor in the Treatment of Cancer” (ACS Med Chem Lett, 2019).
pIC50: −log10 of the molar value.

Columns and labels:
[1] = molecular target: T1, von Hippel-Lindau disease tumor suppressor/Estrogen receptor (Homo sapiens, UniProt P03372+P40337); experiment: Induction of VHL E3 ligase mediated ERalpha degradation in human MCF7 cells assessed as downregulation of ERalpha expression by cell-based immunofluorescence assay
Target sequence in this assay (P40337 whole entry, one chain of several): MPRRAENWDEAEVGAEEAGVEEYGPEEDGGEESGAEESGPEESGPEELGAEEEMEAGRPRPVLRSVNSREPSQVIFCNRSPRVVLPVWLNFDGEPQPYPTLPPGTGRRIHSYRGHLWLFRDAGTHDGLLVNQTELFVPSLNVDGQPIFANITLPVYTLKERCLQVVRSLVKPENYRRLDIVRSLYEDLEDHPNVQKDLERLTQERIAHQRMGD

[2] = molecular target: T1, von Hippel-Lindau disease tumor suppressor/Estrogen receptor; experiment: Induction of VHL E3 ligase mediated ERalpha degradation in human MCF7 cells at 0.3 uM by cell-based immunofluorescence assay
Target sequence in this assay (P40337 whole entry, looked up, one chain of several): as the sequence (P40337 whole entry, one chain of several) above

Estrogen receptor = molecular target: T2, Estrogen receptor (Homo sapiens, UniProt P03372); experiment: Displacement of fluorescent ligand from human recombinant GST-tagged ER-alpha ligand binding domain (307 to 554 residues) incubated for 15 mins by TR-FRET based competitive assay
T2 sequence (P03372 whole entry): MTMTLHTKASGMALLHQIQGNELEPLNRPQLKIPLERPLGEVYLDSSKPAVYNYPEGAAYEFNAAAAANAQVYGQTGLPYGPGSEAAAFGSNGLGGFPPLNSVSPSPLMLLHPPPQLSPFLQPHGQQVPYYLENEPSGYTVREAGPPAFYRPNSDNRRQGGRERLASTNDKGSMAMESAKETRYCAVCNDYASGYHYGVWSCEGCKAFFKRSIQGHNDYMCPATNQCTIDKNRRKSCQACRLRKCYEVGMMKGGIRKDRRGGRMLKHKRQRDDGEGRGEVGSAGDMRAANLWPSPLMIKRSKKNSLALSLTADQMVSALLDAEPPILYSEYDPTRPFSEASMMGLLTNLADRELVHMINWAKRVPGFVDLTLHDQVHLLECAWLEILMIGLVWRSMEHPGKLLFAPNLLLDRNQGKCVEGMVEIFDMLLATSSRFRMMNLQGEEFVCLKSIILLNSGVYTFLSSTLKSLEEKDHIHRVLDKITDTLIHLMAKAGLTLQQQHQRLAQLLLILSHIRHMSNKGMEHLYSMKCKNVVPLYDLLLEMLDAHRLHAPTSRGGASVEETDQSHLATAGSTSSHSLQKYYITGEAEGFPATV

Row | SMILES | pIC50 [1] | Activity [2] | pIC50 (Estrogen receptor)
1 | Cc1ncsc1-c1ccc(CNC(=O)[C@@H]2C[C@@H](O)CN2C(=O)[C@@H](NC(=O)COCCCOCCOc2cc(F)c([C@@H]3c4[nH]c5ccccc5c4C[C@@H](C)N3CC(C)(C)F)c(F)c2)C(C)(C)C)cc1 | 9.40 | > 90% | 
2 | Cc1ncsc1-c1ccc([C@H](C)NC(=O)[C@@H]2C[C@@H](O)CN2C(=O)[C@@H](NC(=O)COCCOCCOCCOc2cc(F)c([C@@H]3c4[nH]c5ccccc5c4C[C@@H](C)N3CC(C)(C)F)c(F)c2)C(C)(C)C)cc1 | 9.52 | > 90% | 
3 | Cc1ncsc1-c1ccc(CNC(=O)[C@@H]2C[C@@H](O)CN2C(=O)[C@@H](NC(=O)COCCOCCC(F)(F)CCOc2cc(F)c([C@@H]3c4[nH]c5ccccc5c4C[C@@H](C)N3CC(C)(C)F)c(F)c2)C(C)(C)C)cc1 | 9.10 | > 90% | 
4 | C[C@]12CC[C@@H]3c4ccc(O)cc4C[C@@H](CCCCCCCCC[S+]([O-])CCCC(F)(F)C(F)(F)F)[C@H]3[C@@H]1CC[C@@H]2O (some centres not stated) |  | 100% | 
5 | Cc1ncsc1-c1ccc([C@H](C)NC(=O)[C@@H]2C[C@@H](O)CN2C(=O)[C@@H](NC(=O)COCCOCCCCCOc2cc(F)c([C@@H]3c4[nH]c5ccccc5c4C[C@@H](C)N3CC(C)(C)F)c(F)c2)C(C)(C)C)cc1 | 9.22 | > 90% | 9.30
6 | Cc1ncsc1-c1ccc(CNC(=O)[C@@H]2C[C@@H](O)CN2C(=O)[C@@H](NC(=O)COCCCOCCCOc2cc(F)c([C@@H]3c4[nH]c5ccccc5c4C[C@@H](C)N3CC(C)(C)F)c(F)c2)C(C)(C)C)cc1 | 9.40 to 9.52 | > 90% | 
